Source: ChEMBL document CHEMBL1201862, “PubChem BioAssay data set” (2004)
Values belong to the molecule of their own block, whether it stands above or below them. Activity calls are given as the source filed them.

Columns and labels:
[1] = nonselective StAR promoter luciferase inhibitors – cell-based, luminescence, luciferase reporter, counter-screen for LRH-1 inverse agonist project, dose response (AID 651969); type: functional
[2] = target: Nuclear receptor subfamily 5 group A member 2 (Homo sapiens, UniProt O00482); type: functional, cell-based;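 further: HEK293T cells transfected with LRH-1 and a StAR promoter luciferase reporter; potency for inhibitors that lower LRH-1 driven reporter light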
Sequence of Nuclear receptor subfamily 5 group A member 2 (O00482 whole entry): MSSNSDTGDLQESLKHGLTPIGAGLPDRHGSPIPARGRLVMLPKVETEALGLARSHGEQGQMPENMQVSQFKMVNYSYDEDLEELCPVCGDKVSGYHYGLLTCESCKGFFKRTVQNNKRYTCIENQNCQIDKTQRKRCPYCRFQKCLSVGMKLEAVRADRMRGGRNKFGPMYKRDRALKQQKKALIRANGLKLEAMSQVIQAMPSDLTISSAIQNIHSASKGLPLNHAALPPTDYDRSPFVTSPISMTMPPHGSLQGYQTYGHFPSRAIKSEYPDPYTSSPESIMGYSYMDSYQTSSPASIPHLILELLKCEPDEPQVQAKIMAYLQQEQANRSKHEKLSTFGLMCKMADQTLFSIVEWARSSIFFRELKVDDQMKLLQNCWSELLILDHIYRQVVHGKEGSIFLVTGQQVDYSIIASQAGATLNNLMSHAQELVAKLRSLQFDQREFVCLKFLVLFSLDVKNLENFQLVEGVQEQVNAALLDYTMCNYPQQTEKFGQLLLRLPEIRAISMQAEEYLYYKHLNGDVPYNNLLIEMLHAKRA

Steroidogenic factor 1 = Steroidogenic factor 1 (Homo sapiens, UniProt Q13285); assay: Counterscreen for inverse agonists of the liver receptor homolog-1 (LRH-1; NR5A2): Luminescence-based cell-based high throughput dose response assay to identify inverse agonists of the Steroidogenic Factor 1 Nuclear Receptor (SF1; NR5A1).; type: functional
Cytochrome P450 3A4 = Cytochrome P450 3A4 (Homo sapiens, UniProt P08684);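 further: CYP3A4 tested as one member of a cytochrome P450 panel screen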
Cytochrome P450 2C19 = Cytochrome P450 2C19 (Homo sapiens, UniProt P33261); assay: Cytochrome panel assay with activity outcomes. Panel member name: p450-cyp2c19 Compounds with AC50 equal or less than 10 uM are considered active; type: functional; settings: read-out: AC50
[3] = viability loss in HEK293T cells – cell-based, cherry-picks, cytotoxicity control for HIV Vif inhibitor project, dose response (AID 652208); type: functional
[4] = target: T1, Corticotropin-releasing factor receptor 2/Corticotropin-releasing factor-binding protein (Homo sapiens, UniProt P24387+Q13324); assay: activators of CRF receptor 2 with binding protein – uHTS hits, confirmation (AID 602473); type: functional; settings: read-out: EC50_Mean
T1 sequence (Q13324 whole entry): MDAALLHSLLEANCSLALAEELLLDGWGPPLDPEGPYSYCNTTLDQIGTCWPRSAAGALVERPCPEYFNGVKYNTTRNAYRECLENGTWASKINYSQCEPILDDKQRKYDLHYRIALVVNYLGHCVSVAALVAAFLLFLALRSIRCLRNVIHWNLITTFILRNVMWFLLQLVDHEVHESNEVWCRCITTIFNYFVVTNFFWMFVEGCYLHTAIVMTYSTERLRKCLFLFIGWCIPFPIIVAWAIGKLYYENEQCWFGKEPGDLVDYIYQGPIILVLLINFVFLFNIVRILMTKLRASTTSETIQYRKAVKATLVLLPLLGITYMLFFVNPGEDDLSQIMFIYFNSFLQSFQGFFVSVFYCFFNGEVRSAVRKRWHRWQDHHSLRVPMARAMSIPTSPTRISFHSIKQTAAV
T1 sequence (P24387 whole entry): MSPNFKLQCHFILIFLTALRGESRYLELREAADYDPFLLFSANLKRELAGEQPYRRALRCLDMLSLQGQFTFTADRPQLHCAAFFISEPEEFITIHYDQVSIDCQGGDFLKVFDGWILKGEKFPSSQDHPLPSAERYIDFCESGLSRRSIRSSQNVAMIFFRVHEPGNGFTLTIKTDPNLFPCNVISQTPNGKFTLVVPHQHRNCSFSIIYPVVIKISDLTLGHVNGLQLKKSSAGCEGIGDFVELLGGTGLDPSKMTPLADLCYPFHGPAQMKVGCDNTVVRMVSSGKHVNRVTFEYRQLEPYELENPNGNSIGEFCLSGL

[5] = target: T1, Corticotropin-releasing factor receptor 2/Corticotropin-releasing factor-binding protein; assay: Dose Response confirmation of uHTS hits for small molecule antagonists of the CRF-binding protein and CRF-R2 receptor complex.; type: functional; settings: read-out: IC50_Mean
[6] = target: T2, Sentrin-specific protease 1 (Homo sapiens, UniProt Q9P0U3); assay: SENP1 catalytic domain blockers, concentration series – biochemical, kinetic FRET, dose response (AID 651697); type: functional; settings: read-out: IC50_Mean
T2 sequence (Q9P0U3 whole entry, the tested form may be a part): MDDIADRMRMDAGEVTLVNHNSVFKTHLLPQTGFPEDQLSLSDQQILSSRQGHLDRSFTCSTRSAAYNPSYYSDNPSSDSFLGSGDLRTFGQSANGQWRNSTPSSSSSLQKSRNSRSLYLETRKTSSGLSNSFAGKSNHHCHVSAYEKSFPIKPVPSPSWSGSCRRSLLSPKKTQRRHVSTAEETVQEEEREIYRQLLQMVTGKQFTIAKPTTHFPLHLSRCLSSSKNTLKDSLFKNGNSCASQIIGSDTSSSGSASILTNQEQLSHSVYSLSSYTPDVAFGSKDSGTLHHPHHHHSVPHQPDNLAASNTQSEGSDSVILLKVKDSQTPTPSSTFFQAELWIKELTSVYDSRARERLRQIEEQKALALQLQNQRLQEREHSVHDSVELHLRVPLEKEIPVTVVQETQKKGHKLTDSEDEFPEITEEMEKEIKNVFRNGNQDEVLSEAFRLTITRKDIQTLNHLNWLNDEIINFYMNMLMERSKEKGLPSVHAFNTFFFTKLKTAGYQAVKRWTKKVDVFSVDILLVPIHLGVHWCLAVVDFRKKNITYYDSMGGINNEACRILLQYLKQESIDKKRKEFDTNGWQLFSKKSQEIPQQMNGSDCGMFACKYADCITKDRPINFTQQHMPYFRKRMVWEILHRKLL

[7] = target: T2, Sentrin-specific protease 1; assay: Dose response confirmation of small molecule inhibitors of the catalytic domain of the SUMO protease, SENP1 in a FRET assay.; type: functional; settings: read-out: IC50_Mean
[8] = toxicity toward HepG2 liver cells – cell-based, plate reader, cherry-pick, antagonist series, cytotoxicity control, dose response (AID 743416); type: functional
[9] = viability loss in HEK293 cells – cell-based, plate reader, cherry-picked samples, cytotoxicity control, dose response (AID 743446); type: functional
[10] = blockers of bursicon-stimulated LGR2 cAMP reporter – cell-based, HEK293, CRE-luciferase reporter, cherry pick, set 2, dose response (AID 743343); type: functional;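 further: transfected cells were stimulated with diluted bursicon conditioned medium after compound addition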
[11] = blockade of melanocortin 4 receptor signaling – cell-based, plate reader, cherry pick, counter-screen for LGR2 antagonist project, dose response (AID 743444); type: functional;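 further: transfected HEK 293 cells stimulated with alpha-MSH peptide; potency of inhibitors of the alpha-MSH evoked signal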
Protein Wnt-3a = Protein Wnt-3a (Mus musculus, UniProt P27467); assay: SAR analysis of small molecule antagonists of Gli-SUFU in a Wnt3a luminescent reporter assay.; type: functional
[12] = target: Hepatocyte nuclear factor 4-alpha (Homo sapiens, UniProt P41235); type: functional, cell-based;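 further: biochemical luminescence-based dose-response counterscreen measuring inhibition of HNF4 dimerization, run alongside a screen for blockers of ABHD5–perilipin-5 interaction; split luciferase complementation of HNF4 fusion proteins in cell lysate measuring dimerization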
Albumin = Albumin (Bos taurus, UniProt P02769); assay: Counterscreen for inhibitors of T-cell receptor (TCR)-CD3 interaction: Fluorescence-based biochemical high throughput dose response assay to identify inhibitors of T-cell receptor (TCR)-CD3 interaction using a TAMRA-labeled BSA probe.; type: functional
Sequence of Albumin (P02769 whole entry): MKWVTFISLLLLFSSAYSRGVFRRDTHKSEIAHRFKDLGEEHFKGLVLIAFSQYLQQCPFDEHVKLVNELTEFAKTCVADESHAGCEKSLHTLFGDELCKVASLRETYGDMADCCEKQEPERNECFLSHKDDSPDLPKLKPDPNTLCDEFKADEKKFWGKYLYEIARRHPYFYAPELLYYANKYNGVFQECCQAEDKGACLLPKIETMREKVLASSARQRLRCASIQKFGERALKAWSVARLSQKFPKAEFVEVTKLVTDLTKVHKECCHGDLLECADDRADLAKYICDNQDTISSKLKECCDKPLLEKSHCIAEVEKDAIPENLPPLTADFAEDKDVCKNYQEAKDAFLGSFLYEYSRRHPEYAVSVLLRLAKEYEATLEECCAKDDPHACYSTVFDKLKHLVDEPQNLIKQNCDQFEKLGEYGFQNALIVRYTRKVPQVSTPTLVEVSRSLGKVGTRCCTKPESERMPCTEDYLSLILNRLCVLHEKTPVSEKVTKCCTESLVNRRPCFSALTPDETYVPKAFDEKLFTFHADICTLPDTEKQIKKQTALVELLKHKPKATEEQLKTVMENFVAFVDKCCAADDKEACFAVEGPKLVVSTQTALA

[13] = target: T3, DNA repair protein RAD52 homolog (Homo sapiens, UniProt P43351); type: functional, biochemical
T3 sequence (P43351 whole entry): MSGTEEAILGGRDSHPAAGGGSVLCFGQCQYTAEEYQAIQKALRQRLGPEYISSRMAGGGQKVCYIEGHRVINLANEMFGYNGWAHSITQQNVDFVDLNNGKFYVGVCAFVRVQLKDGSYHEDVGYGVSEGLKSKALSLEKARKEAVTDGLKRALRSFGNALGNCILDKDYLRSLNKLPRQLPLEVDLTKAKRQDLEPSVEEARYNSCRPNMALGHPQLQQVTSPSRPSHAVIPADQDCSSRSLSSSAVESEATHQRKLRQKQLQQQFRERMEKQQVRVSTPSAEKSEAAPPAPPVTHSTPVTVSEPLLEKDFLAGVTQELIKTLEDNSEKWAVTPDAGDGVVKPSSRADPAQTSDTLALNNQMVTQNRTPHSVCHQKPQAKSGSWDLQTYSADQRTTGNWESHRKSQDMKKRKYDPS

[14] = target: DNA repair and recombination protein RAD54-like (Homo sapiens, UniProt Q92698); assay: RAD54 Holliday junction migration blockers – biochemical, fluorescence, cherry-picked samples, dose series, confirmation (AID 651657); type: functional
Sequence of DNA repair and recombination protein RAD54-like (Q92698 whole entry): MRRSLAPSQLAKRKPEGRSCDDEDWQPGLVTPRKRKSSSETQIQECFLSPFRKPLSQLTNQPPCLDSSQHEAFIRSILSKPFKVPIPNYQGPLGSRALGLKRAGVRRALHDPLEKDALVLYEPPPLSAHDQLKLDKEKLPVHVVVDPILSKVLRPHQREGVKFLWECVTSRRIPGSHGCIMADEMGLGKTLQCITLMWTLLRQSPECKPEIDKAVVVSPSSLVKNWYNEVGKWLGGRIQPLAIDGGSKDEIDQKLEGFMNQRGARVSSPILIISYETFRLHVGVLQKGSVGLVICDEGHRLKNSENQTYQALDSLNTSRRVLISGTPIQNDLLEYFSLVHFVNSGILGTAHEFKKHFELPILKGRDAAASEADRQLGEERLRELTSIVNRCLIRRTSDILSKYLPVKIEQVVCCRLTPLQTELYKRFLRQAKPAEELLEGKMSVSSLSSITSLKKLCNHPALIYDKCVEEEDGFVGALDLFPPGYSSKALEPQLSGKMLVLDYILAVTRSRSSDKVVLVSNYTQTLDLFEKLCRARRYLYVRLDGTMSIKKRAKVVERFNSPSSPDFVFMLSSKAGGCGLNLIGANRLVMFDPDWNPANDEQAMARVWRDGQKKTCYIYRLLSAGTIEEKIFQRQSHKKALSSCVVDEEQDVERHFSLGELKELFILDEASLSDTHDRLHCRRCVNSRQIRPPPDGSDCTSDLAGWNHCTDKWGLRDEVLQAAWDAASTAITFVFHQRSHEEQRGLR

[15] = target: SWI/SNF-related matrix-associated actin-dependent regulator of chromatin subfamily A member 2 (Homo sapiens, UniProt P51531); assay: Luminescence-based cell-based high throughput dose response assay to identify activators of the function of SWI/SNF related, matrix associated, actin dependent regulator of chromatin, subfamily a, member 2 (SMARCA2, BRM).; type: functional
[16] = Counterscreen for activators of the function of SWI/SNF related, matrix associated, actin dependent regulator of chromatin, subfamily a, member 2 (SMARCA2, BRM): Luminescence-based cell-based high throughput dose response assay to identify non-selective compounds using the VP16 reporter assay.; type: functional
[17] = target: T4, Low molecular weight phosphotyrosine protein phosphatase (Homo sapiens, UniProt P24666); type: functional; settings: read-out: IC50_Mean
T4 sequence (P24666 whole entry): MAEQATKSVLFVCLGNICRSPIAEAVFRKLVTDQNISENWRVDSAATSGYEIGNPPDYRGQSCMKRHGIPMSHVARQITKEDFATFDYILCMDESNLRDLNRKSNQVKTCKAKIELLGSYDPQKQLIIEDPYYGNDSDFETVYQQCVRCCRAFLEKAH

[18] = target: T4, Low molecular weight phosphotyrosine protein phosphatase; type: functional; settings: read-out: IC50_Mean; remark: listed apart in the source
Fatty acid synthase [19] = target: T5, Fatty acid synthase (Homo sapiens, UniProt P49327); assay: inhibition of human FAS-TE enzyme activity – biochemical, endpoint fluorescence intensity, uHTS hits, dose response (AID 624327); type: functional;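 further: fluorescence from hydrolysis of an O-methyl fluorescein acyl ester substrate by the enzyme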
T5 sequence (P49327 whole entry): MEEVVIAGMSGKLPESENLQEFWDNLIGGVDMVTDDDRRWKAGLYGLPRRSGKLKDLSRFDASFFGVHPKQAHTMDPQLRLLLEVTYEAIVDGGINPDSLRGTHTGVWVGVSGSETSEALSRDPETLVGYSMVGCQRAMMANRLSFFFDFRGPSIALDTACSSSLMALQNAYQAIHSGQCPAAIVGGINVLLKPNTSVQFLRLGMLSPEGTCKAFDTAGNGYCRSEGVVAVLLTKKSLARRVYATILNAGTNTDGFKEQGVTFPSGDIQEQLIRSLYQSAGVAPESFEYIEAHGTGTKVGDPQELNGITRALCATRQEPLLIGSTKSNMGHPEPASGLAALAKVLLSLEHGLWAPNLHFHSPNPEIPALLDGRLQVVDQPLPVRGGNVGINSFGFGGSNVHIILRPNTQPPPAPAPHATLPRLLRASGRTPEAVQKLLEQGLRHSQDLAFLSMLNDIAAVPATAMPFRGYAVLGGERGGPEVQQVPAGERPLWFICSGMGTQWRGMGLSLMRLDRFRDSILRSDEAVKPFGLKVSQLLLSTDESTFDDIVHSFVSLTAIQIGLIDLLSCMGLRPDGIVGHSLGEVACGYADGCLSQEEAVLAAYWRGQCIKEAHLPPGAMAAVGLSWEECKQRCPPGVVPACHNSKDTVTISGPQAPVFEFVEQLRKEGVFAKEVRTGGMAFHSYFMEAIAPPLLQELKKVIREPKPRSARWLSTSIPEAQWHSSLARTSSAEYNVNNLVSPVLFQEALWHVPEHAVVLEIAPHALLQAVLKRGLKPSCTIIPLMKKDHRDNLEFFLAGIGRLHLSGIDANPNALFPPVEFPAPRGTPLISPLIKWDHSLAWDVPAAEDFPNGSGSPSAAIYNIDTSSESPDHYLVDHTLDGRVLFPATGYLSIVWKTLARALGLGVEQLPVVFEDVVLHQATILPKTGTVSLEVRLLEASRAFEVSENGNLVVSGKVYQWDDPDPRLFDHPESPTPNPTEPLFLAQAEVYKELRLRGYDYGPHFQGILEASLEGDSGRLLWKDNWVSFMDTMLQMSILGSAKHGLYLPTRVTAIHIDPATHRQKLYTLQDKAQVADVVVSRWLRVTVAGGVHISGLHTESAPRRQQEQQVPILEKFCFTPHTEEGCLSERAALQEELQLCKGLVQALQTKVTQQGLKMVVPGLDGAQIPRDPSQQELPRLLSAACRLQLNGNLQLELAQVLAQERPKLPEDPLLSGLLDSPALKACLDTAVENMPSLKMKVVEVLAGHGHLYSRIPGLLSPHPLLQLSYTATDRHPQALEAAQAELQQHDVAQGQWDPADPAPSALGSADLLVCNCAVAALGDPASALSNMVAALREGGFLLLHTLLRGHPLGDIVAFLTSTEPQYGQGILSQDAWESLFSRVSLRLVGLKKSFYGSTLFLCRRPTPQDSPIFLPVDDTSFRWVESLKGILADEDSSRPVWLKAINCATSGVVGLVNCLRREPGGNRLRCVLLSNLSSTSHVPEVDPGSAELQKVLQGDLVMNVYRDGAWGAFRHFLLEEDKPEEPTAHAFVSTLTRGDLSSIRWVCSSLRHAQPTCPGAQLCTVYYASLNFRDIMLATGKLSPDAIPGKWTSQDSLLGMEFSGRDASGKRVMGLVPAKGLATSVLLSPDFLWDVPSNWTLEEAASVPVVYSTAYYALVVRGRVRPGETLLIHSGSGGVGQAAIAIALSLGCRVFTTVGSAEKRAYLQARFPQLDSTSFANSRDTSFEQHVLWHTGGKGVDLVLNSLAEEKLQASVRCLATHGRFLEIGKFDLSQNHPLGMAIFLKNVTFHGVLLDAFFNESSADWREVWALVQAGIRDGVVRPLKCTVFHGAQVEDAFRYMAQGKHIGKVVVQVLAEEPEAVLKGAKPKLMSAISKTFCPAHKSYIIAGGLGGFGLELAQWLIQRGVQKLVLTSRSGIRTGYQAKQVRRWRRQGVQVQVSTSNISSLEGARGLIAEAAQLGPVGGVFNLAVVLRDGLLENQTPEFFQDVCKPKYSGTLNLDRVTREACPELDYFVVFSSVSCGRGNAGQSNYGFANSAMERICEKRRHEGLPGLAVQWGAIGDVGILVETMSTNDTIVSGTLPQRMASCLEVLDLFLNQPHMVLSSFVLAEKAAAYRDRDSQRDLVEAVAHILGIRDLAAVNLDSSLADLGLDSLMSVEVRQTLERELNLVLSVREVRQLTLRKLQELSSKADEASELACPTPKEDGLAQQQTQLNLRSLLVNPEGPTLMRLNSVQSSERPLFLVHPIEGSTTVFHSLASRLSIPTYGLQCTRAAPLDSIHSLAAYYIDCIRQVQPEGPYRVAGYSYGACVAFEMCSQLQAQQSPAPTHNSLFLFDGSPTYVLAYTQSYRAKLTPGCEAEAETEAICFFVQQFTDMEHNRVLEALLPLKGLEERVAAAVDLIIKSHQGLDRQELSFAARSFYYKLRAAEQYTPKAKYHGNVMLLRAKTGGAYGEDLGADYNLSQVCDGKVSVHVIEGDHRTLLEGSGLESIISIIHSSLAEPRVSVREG

[20] = target: Mitochondrial peptide methionine sulfoxide reductase (Bos taurus, UniProt P54149); type: functional;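 further: absorbance read-out, biochemical high-throughput dose-response screen for MsrA inhibitors, confirmatory; recombinant bovine MsrA coupled to E. coli TrxB with NADPH and selenocystamine; potency is for inhibitors of MsrA activity on DMSO substrate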
Fatty acid synthase [21] = target: T5, Fatty acid synthase; assay: inhibition of human FAS-TE enzyme activity – biochemical, kinetic fluorescence intensity, dose response (AID 624326); type: functional;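 further: rate of fluorescence rise from hydrolysis of a fluorogenic O-methyl fluorescein ester substrate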
[22] = target: T6, Rac GTPase-activating protein 1 (Homo sapiens, UniProt Q9H0H5); assay: blockers of MgcRacGAP-driven Rac1 GTP hydrolysis – biochemical, ADP Hunter fluorescence, primary and confirmatory, confirmation (AID 624330); type: functional
T6 sequence (Q9H0H5 whole entry): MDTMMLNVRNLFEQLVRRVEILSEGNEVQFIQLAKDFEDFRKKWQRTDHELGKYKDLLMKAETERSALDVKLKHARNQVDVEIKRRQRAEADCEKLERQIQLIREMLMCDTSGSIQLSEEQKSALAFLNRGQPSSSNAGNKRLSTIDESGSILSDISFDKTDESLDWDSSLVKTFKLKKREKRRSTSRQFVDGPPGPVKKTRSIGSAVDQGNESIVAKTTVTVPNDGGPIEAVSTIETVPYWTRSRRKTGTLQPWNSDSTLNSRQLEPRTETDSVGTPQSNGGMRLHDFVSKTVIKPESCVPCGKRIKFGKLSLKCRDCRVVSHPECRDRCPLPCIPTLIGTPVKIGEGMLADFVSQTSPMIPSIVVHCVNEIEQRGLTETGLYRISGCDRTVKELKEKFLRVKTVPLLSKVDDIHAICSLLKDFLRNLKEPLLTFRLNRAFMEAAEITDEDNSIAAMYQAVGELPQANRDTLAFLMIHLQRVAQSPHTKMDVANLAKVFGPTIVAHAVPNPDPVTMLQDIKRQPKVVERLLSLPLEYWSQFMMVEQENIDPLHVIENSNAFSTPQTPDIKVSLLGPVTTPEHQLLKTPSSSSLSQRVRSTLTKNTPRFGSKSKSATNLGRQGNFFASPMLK

Genome polyprotein = Genome polyprotein (dengue virus type 2, UniProt P29990); assay: flavivirus cap methylation enzyme inhibition – biochemical, confirmation dose response, primary screen (AID 588689); type: functional
[23] = target: Scavenger receptor class B member 1 (Mus musculus, UniProt Q61009); assay: blockers of DiI-HDL lipid transfer via SR-BI – cell-based, ldlA[mSR-BI] CHO, DiI fluorescence, dry powder, set 10, dose response (AID 624029); type: functional
[24] = anti-trypanosomal activity in BESM host cells – imaging, CA-I/72 strain, bovine embryo skeletal muscle, dry powder, dose response (AID 651885); type: functional, cell-based
[25] = T. cruzi growth inhibition in host cells, dose response, cell-based, plate reader, dry powder, set 2 (AID 652275); type: functional

Structure (SMILES): CCn1cc(Br)c(C(=O)Nc2ccccc2C(=O)OC)n1
IC50 [1]: 35.9 µM (inactive) | IC50 [2]: 35.9 µM (inactive) | IC50 (Steroidogenic factor 1): 10.5 µM (inactive)

Structure (SMILES): COC(=O)c1ccc(Oc2coc3cc(OCc4cnn(-c5ccccc5)c4)ccc3c2=O)cc1
AC50 (Cytochrome P450 3A4): inconclusive | AC50 (Cytochrome P450 2C19): 0.708 µM (inconclusive) | AC50 [3]: 38.3 µM (active)

EC50 [4]: > 53 µM (inactive) | IC50 [5]: > 47.1 µM (inactive) | IC50 [6]: 13.9 µM (active) | IC50 [7]: 13.2 µM (active)
Structure (SMILES): C=CCNC(=O)c1cccc2c1C(=O)c1ccc(N3CCOCC3)cc1S2(=O)=O

Structure (SMILES): O=C(NC1(Cc2ccccc2)CCN(Cc2ccc(-c3ccccc3)cc2)C1=O)c1ccccc1 (stereo unspecified)
AC50 [8]: > 52 µM (inactive) | AC50 [9]: > 52 µM (inactive) | AC50 [10]: 5.14 µM (active) | AC50 [11]: 10.1 µM (active)

IC50 (Protein Wnt-3a): > 21.8 µM (inactive)
Structure (SMILES): O=C(Nc1cc(N2CCCCC2)ncn1)c1ccc2ccccc2c1

IC50 [12]: 2.93 µM (active)
Structure (SMILES): CC(c1nc2ccccc2[nH]1)n1c(=O)c(-c2ccco2)nc2ccccc21 (stereo unspecified)

IC50 (Albumin): > 94.2 µM (inactive)
Structure (SMILES): NNC(=O)c1[nH]cnc1C(=O)Nc1ccccn1

Structure (SMILES): Cc1ccc(-c2nc(NCCN(C)C)c3ccccc3n2)cc1
AC50 [13]: 8.93 µM (active) | AC50 [14]: 12.6 µM (active) | EC50 [15]: 37.1 µM (inactive) | EC50 [16]: > 91.2 µM (inactive)

IC50 [17]: 21.1 µM (inactive) | IC50 [18]: 12.3 µM (active)
Structure (SMILES): CCOCCCNc1nc(-c2ccccc2)nc2ccccc12

Structure (SMILES): CSc1nc(N)c(N=Nc2ccc([As](=O)(O)O)cc2)c(O)n1
IC50 (Fatty acid synthase [19]): 11.4 µM (active) | IC50 [20]: 9.91 µM (active) | IC50 (Fatty acid synthase [21]): 4.99 µM (active) | IC50 [22]: 39.9 µM (active) | IC50 (Genome polyprotein): 57.3 µM (active)

AC50 [23]: 61 µM (active)
Structure (SMILES): Cc1ccc(OCc2cc(C(=O)N3CCCC(O)C3)no2)cn1 (stereo unspecified)

Structure (SMILES): Cc1cc(C(=O)Nc2cccc3c2O[C@@H](CN(C)Cc2ccc(Oc4ccccc4)cc2)[C@H](C)CN([C@@H](C)CO)C3=O)n(C)n1
IC50 [24]: > 20 µM (inactive) | AC50 [25]: 1.28 µM (active)
